Experiment: Pharmacokinetics after administration of the subject combination
Conditions: co-administered with bupropion; dextromethorphan 30 to 60 mg, bupropion 75 to 150 mg
From the text: In the subject combination, bupropion inhibits the metabolism of dextromethorphan via CYP2D6.

## COc1ccc2c(c1)[C@]13CCCC[C@@H]1[C@H](C2)N(C)CC3 [dextromethorphan]
  pharmacokinetics at steady state (dose proportionality of AUC and Cmax): nonlinear pharmacokinetics
